Source: PMC11377542, “An artificial intelligence accelerated virtual screening platform for drug discovery” (Nature Communications, 2024)
Values joined by “and” are separate entries in the source; they are usually repeats but may differ in a detail not shown here. Identical values can stand only once. Like-named read-outs stand apart in the source and are kept apart here.

Assays:
[1] = biological target: T1, KLHDC2 (Homo sapiens, UniProt Q9Y2U9); experiment: Octet BioLayer Interferometry competition assay (biotinylated SelK peptide / GST-KLHDC2); type: binding; conditions: BLI competition, C29 at 0-30 µM, 50 nM GST-KLHDC2
T1 construct: human KLHDC2 (UniProt: Q9Y2U9, amino acid 1–362); made in house; host or cells: HighFive insect cells (baculovirus, pFastBac)
T1 sequence (Q9Y2U9 1-362): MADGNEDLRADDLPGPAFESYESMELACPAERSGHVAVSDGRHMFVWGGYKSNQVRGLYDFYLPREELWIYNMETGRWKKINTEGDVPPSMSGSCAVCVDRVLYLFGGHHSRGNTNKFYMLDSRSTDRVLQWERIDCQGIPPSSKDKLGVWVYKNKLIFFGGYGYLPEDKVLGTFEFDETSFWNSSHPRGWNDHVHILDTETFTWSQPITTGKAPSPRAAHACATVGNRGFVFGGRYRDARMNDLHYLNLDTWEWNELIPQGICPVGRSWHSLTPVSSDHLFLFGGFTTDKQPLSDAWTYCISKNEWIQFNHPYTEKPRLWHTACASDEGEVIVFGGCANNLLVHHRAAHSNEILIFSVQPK
Protocol: Octet BioLayer interferometry competition assay monitoring the ability of C29 to interfere with the binding between the biotinylated 12 aa SelK peptide and GST-KLHDC2 was monitored using the Octet Red 96 (ForteBio, Pall Life Sciences) following the manufacturer’s procedures. The reaction was carried out in black 96 well plates maintained at 30 °C. The reaction volume was 200 μL in each well. The Octet buffer used throughout the experiment contained 20 mM Tris-HCl, 200 mM NaCl, 5 mM DTT and 0.1% BSA, pH 8.0. The Loading buffer contained the Octet buffer and biotinylated 12 aa SelK peptide, at a final concentration of 200 nM. […] The binding of the analyte GST-KLHDC2 in the presence or absence of the C29, to the optical probes was measured simultaneously using instrumental defaults for 225 sec as the probes were then incubated in Association buffer. The dissociation was measured for 600 sec while the probes were incubated in Octet buffer. […] The data were analyzed by the Octet data analysis software version 9.0.. […] The IC50 value was calculated using Prism 8 (GraphPad) from the nonlinear regression curve fit of the response values vs. log competitor concentration.
Supplementary Fig. 14 | BioLayer Interferometry competition assay of compound 29. […] The binding of the analyte GST-KLHDC2 in the presence or absence of the C29, to the loaded optical probes was measured in the association buffer. […]

[2] = biological target: T1, KLHDC2; experiment: AlphaLISA competition assay (displacement of SelK C-end degron peptide from GST-KLHDC2); type: binding; conditions: IC50, competition with biotinylated 12 aa SelK degron peptide; 12-point titration, n = 3 technical replicates
Text: We took the top-ranked 1000 compounds and filtered out compounds with low predicted solubility, unsatisfied hydrogen bonds in the bound conformation, and followed by similarity clustering to reduce the redundancy in ligand structures. A total of 54 molecules that passed the filtering and clustering were manually examined for favorable interactions and geometries in PyMol[34]. Finally, 37 compounds were chosen for chemical synthesis. Out of these, 29 compounds were successfully synthesized (Supplementary Fig. 13) and characterized in an AlphaLISA competition assay, in which each compound was tested for its ability to compete with a diglycine-containing SelK C-end degron peptide for binding KLHDC2. […] This single digit μM IC50 was further confirmed in a competition assay using BioLayer Interferometry (Supplementary Fig. 14).
The kelch repeat domain of human KLHDC2 (UniProt: Q9Y2U9, amino acid 1–362) was subcloned into the pFastBac vector with an N-terminally fused glutathione-S-transferase (GST), and a TEV-cleavage site. A recombinant baculovirus was produced and amplified three times in Sf9 monolayer cells to produce P4. The P4 virus was used to infect HighFive suspension insect cell cultures to produce the recombinant GST-KLHDC2 protein. The cells were harvested 2–3 days post-infection, re-suspended, and lysed in lysis buffer (20 mM Tris, pH 8.0, 200 mM NaCl, 5 mM DTT) in the presence of protease inhibitors (1 μg/ml Leupeptin, 1 μg/ml Pepstatin and 100 μM PMSF) using a microfluidizer. The GST-KLHDC2 protein was isolated from the soluble cell lysate by PierceTM Glutathione Agarose (Thermo Scientific). For AlphaLISA competition assays, the GST-tagged KLHDC2 was further purified by Q Sepharose High-Performance resin (GE Healthcare). The NaCl eluates were subjected to a Superdex-200 size exclusion chromatography column (GE Healthcare). All samples were flash-frozen in liquid nitrogen for storage prior to use. For protein crystallization, the kelch repeat domain of human KLHDC2 (amino acids 22–362) was subcloned into the pET vector with an N-terminally fused His-elongation factor Ts (TSF) and a TEV-cleavage site. The His-TSF-KLHDC2 protein was overexpressed and purified from BL21 (DE3) E. coli cells. Bacterial cells transformed with the pET-based expression plasmid were grown in LB broth to an OD600 of 0.8–1 and induced with 0.5 mM IPTG. Cells were harvested, re-suspended, and lysed in lysis buffer (20 mM Tris, pH 8.0, 200 mM NaCl, 20 mM imidazole) in the presence of protease inhibitors (1 μg mL–1 leupeptin, 1 μg mL–1 pepstatin and 100 μM phenylmethylsulfonyl fluoride) using a microfluidizer. The His-TSF-KLHDC2 protein was isolated from the soluble cell lysate by HisPurTM Ni-NTA Superflow Agarose (Thermo Fisher Scientific, Waltham, Massachusetts). After TEV cleavage of the His-TSF, KLHDC2 was further purified by Mono Q™ 5/50 GL (GE Healthcare, Chicago, Illinois). The NaCl eluates were subjected to Superdex-200 size-exclusion chromatography (GE Healthcare). Native mass spectrometry was used to confirm KLHDC2 in its apo form. The samples were concentrated by ultrafiltration to 10–22 mg mL−1. All samples were flash-frozen in liquid nitrogen for storage prior to use.
AlphaLISA assays for determining and measuring protein-protein interactions were performed using an EnSpire reader (PerkinElmer). GST-tagged KLHDC2 was attached to anti-GST AlphaLISA acceptor beads. Synthetic N-terminal biotinylated 12 aa SelK degron peptide ([Biotin]HLRGSPPPMAGG[C) (Bio-Synthesis, Inc.) was immobilized to streptavidin-coated AlphaLISA donor beads. The donor and acceptor beads were brought into proximity by the interactions between the SelK peptide and KLHDC2. Excitation of the donor beads by a laser beam of 680 nm promotes the formation of singlet oxygen. When an acceptor bead is in close proximity, the singlet oxygen reacts with thioxene derivatives in the acceptor beads and causes the emission of 615 nm photons, which are detected as the binding signal. […]

[3] = biological target: T2, hNaV1.7 channel (Homo sapiens, UniProt Q15858); experiment: Whole-cell patch-clamp electrophysiology on hNaV1.7 stably expressed in HEK-293 cells; type: cell-based; conditions: for IC50: mean
T2 construct: expressed in transfected cells
T2 sequence (Q15858 whole entry): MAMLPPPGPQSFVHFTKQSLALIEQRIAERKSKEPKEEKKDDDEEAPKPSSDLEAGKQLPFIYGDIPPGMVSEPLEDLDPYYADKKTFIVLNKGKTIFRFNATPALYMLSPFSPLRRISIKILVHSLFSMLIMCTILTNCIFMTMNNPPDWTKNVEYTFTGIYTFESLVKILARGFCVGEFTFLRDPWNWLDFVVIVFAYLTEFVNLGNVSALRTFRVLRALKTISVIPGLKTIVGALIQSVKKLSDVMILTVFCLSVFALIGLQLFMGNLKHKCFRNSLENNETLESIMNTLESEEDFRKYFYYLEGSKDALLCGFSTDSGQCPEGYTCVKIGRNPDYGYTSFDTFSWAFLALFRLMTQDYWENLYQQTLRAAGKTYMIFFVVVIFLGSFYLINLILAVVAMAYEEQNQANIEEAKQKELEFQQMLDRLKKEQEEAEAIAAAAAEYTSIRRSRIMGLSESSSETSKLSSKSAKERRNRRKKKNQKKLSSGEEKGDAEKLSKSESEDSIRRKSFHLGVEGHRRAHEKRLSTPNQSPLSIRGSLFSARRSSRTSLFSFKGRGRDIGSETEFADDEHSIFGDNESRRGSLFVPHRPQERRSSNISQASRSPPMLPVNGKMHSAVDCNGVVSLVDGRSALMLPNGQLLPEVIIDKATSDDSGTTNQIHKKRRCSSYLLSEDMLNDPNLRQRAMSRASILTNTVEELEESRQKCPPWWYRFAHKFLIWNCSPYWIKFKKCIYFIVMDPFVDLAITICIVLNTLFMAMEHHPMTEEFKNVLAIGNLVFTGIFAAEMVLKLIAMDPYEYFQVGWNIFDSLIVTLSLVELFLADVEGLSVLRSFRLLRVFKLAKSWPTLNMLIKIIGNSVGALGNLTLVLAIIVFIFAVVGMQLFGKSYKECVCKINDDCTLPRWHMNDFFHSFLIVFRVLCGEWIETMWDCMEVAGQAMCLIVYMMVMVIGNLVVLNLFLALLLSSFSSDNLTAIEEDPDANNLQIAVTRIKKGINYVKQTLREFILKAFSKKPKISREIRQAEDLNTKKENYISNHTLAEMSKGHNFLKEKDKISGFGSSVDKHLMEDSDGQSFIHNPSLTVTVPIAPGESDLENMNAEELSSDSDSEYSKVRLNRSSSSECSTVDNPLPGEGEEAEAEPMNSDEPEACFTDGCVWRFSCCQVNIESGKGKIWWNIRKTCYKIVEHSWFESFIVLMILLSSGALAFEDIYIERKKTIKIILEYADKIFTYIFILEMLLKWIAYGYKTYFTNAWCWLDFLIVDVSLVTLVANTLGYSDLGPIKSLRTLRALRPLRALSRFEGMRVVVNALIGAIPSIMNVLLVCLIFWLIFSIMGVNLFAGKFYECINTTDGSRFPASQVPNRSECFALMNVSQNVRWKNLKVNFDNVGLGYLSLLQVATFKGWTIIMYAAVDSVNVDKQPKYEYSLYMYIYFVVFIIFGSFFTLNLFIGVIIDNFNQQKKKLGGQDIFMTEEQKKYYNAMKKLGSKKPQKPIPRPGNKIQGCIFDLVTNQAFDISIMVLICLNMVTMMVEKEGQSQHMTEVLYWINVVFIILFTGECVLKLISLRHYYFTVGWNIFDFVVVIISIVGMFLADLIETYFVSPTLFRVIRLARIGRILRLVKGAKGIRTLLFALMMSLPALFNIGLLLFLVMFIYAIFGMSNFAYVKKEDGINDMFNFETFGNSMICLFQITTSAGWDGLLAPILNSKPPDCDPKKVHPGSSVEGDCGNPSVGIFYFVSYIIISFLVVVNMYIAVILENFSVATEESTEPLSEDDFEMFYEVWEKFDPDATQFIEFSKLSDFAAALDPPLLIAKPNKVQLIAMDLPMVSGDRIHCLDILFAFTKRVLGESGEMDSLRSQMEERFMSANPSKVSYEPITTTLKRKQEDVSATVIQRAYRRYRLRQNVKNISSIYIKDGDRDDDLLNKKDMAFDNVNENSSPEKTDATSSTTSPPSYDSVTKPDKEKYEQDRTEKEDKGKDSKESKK
Text: We first clustered the top 100,000 ranked small molecules, then applied filters on the top 1000 cluster representative molecules. A total of 160 molecules that passed the clustering and filtering were examined manually. To ensure the chemical novelty of our selection, we specifically excluded molecules that contain the known arylsulfonamide warhead or structurally resemble antihistamines or beta-receptor blockers. Finally, ten molecules with Tanimoto similarities of less than 0.33 to the known inhibitors of NaV1.7 from the ChEMBL database[43],[44] were selected for synthesis. Of these, nine were successfully synthesized (Supplementary Fig. 16), and their activities were measured using the whole-cell patch-clamp electrophysiology assay on hNaV1.7 channel stably expressed in HEK-293 cells as described in Methods.
HEK-293 cells stably expressing human NaV1.5 and NaV1.7 were obtained from Dr. Chris Lossin (UC Davis, CA). HEK293 cells stably expressing HERG (hKv11.1) were a gift from Craig January (University of Wisconsin, Madison). Cells were cultured in complete DMEM supplemented with 10% FBS, 1% penicillin/streptomycin, and G418. All manual whole-cell patch-clamp recordings were performed at room temperature (22–24 °C) using an EPC-10 amplifier (HEKA Electronik, Lambrecht/Pfalz, Germany) on cells that were grown to 60–80% confluency, lifted with TrypLE, and plated onto poly-l-lysine–coated coverslips. External bath solution contains (in mM) 160 NaCl, 4.5 KCl, 2 CaCl2, 1 MgCl2, 10 HEPES (pH 7.4 and 305 mOsm) as. Patch pipettes were heat-pulled from soda lime glass (micro-hematocrit tubes, Kimble Chase, Rochester, NY) and had resistances of 2–3 MΩ when filled with an internal solution. Patch recordings of NaV1.5 and NaV1.7 channels were done using a cesium fluoride-based internal solution containing (in mM) 10 NaF, 110 CsF, 20 CsCl, 10 HEPES, 2 EGTA, (pH 7.4, 310 mOsm). Recordings of HERG channels were conducted using a potassium fluoride-based internal solution with added ATP (160 mM KF, 2 mM MgCl2, 10 mM EGTA, 10 mM HEPES, 4 mM NaATP, pH = 7.2 and 300–320 mOsm). Data acquisition and analysis were performed with Pulse-PulseFit (HEKA Electronik GmbH, Germany), IgorPro (WaveMetrics, Portland, OR), and Origin 9.0 software (OriginLab Corporation, Northampton, MA). To investigate specifically the inactivated state block of NaV1.7 and NaV1.5, holding potentials were set at the V1/2 of maximal inactivation (− 70 mV and − 80 mV, respectively) before voltage stepping to − 150 mV for 20 msec, and then 0 mV for 50 msec to elicit inward currents. Inhibition of currents in the resting state was recorded using a holding potential of − 120 mV. Control test currents were monitored for up to 5–10 min to ensure that the amplitude and kinetics of the response were stable. Series resistance was compensated to 80–90% and linear leak currents and capacitance artifacts were corrected using a P/4 subtraction method. The pulse interval was 0.1 Hz. For all experiments, stock solutions of the drugs were prepared fresh from 10 mM stocks in DMSO and test solutions prepared in external bath solutions were applied to individual cells into the recording bath. […] The percent reduction of HERG tail current amplitude by the compounds was determined. The percent of a block of tail current amplitude by the drugs was determined and data are shown as mean +/− SD (n = 3–4 per data point).

[4] = biological target: T3, HERG (hKv11.1) (Homo sapiens, UniProt Q12809); experiment: Whole-cell patch-clamp electrophysiology on HEK293 cells stably expressing HERG, tail current; type: cell-based; conditions: mean
T3 construct: expressed in transfected cells
T3 sequence (Q12809 whole entry): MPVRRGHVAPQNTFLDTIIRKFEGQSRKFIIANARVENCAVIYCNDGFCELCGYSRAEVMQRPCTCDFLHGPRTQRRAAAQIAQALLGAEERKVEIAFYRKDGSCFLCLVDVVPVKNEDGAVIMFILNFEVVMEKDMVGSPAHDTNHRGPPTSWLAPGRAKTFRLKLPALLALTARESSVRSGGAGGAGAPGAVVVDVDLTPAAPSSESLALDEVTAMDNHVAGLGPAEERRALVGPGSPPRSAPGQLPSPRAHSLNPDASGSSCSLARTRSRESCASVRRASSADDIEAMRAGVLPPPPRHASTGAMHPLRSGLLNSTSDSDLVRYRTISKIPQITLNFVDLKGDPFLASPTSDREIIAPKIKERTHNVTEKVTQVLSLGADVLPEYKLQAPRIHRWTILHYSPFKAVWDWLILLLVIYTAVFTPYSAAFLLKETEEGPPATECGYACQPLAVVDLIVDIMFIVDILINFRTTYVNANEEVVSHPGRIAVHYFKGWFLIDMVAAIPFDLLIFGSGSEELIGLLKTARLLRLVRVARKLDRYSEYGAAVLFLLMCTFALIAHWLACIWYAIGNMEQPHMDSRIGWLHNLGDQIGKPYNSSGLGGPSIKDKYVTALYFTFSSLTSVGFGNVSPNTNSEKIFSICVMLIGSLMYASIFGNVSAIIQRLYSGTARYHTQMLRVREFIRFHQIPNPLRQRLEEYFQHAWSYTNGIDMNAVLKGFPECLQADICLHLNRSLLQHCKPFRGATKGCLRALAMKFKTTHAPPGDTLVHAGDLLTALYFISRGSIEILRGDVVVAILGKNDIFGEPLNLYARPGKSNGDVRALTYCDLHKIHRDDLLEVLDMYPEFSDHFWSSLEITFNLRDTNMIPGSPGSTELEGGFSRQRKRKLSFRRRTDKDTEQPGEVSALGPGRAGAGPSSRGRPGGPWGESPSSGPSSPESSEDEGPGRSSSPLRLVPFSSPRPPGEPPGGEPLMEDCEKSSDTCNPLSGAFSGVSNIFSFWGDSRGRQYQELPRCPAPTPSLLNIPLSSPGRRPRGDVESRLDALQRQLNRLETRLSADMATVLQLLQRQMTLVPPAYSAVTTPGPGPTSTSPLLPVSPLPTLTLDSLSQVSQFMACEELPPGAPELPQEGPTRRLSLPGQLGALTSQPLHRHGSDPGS
Protocol: (§1) HEK-293 cells stably expressing human NaV1.5 and NaV1.7 were obtained from Dr. Chris Lossin (UC Davis, CA). HEK293 cells stably expressing HERG (hKv11.1) were a gift from Craig January (University of Wisconsin, Madison). Cells were cultured in complete DMEM supplemented with 10% FBS, 1% penicillin/streptomycin, and G418. All manual whole-cell patch-clamp recordings were performed at room temperature (22–24 °C) using an EPC-10 amplifier (HEKA Electronik, Lambrecht/Pfalz, Germany) on cells that were grown to 60–80% confluency, lifted with TrypLE, and plated onto poly-l-lysine–coated coverslips. External bath solution contains (in mM) 160 NaCl, 4.5 KCl, 2 CaCl2, 1 MgCl2, 10 HEPES (pH 7.4 and 305 mOsm) as. Patch pipettes were heat-pulled from soda lime glass (micro-hematocrit tubes, Kimble Chase, Rochester, NY) and had resistances of 2–3 MΩ when filled with an internal solution. […] Inhibition of currents in the resting state was recorded using a holding potential of − 120 mV. Control test currents were monitored for up to 5–10 min to ensure that the amplitude and kinetics of the response were stable. […] The percent reduction of HERG tail current amplitude by the compounds was determined. The percent of a block of tail current amplitude by the drugs was determined and data are shown as mean +/− SD (n = 3–4 per data point).

[5] = biological target: T4, human NaV1.5 (Homo sapiens, UniProt Q14524); experiment: Whole-cell patch-clamp electrophysiology on human NaV1.5 stably expressed in HEK-293 cells; type: cell-based; conditions: -80 mV holding potential (inactivated state); mean
T4 construct: expressed in transfected cells
T4 sequence (Q14524 whole entry): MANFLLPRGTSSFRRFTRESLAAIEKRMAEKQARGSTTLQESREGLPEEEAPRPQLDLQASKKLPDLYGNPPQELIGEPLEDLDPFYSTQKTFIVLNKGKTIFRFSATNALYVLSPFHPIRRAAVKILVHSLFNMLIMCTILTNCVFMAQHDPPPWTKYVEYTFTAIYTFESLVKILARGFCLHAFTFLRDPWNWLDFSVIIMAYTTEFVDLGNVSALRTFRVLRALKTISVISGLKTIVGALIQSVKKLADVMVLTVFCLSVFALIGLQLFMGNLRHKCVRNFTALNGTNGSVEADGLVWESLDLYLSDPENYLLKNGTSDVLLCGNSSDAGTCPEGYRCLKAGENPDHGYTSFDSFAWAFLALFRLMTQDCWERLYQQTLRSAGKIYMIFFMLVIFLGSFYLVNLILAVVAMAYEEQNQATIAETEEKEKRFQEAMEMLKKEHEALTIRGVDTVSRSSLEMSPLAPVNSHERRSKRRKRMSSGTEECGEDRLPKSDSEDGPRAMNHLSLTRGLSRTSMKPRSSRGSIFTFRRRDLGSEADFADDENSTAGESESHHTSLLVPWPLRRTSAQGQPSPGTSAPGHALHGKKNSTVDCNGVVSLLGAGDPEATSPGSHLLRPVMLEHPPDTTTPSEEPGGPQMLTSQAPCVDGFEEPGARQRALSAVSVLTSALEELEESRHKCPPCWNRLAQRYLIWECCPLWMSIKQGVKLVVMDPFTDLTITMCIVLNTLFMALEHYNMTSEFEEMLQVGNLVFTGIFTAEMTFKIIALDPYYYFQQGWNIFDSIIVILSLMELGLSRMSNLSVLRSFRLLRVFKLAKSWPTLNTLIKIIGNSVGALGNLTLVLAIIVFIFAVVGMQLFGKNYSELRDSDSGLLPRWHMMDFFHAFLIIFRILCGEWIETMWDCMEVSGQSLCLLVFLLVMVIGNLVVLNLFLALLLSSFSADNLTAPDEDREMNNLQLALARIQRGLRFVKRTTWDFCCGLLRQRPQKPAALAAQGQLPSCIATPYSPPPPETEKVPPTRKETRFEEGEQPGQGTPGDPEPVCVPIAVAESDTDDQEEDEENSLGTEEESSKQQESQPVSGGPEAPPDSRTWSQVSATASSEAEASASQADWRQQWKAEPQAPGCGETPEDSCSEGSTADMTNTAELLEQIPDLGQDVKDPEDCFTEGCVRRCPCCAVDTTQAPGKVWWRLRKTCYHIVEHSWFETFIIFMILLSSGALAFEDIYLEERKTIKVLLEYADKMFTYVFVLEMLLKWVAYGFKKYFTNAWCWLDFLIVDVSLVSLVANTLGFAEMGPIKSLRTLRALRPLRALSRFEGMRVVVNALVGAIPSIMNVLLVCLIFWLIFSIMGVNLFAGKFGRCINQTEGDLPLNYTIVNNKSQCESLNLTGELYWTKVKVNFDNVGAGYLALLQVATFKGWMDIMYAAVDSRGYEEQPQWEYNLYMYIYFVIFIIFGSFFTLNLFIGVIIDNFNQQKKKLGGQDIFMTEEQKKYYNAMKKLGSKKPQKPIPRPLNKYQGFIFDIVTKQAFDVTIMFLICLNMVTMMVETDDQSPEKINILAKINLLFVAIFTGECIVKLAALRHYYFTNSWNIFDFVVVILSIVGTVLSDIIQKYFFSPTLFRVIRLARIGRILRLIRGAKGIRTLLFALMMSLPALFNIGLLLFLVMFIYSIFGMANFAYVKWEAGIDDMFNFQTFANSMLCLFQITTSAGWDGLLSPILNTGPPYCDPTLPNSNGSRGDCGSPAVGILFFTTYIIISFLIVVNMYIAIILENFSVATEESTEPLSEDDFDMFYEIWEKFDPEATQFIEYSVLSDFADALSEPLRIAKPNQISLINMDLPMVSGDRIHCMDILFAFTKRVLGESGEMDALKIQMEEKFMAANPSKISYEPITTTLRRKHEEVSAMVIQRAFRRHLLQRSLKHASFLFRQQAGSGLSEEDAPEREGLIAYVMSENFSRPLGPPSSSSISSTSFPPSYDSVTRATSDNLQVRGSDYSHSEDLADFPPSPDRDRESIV
Protocol: as §1

| Compound | IC50 [1] | IC50 [2] | IC50 ([3]; NaV1.7 inactivated state, -70 mV holding potential, read-out: inactivated-state IC50) | IC50 ([3]; NaV1.7 resting state, -120 mV holding potential, read-out: resting state IC50) [µM] | selectivity for hNaV1.7 versus hNaV1.5 and hERG channels ([3]; in words) | state dependence of NaV1.7 inhibition ([3]; inactivated versus resting state, in words) | IC50 [4] [µM] | IC50 [5] [µM] |
| --- | --- | --- | --- | --- | --- | --- | --- | --- |
| CC(C)(C)c1ccc(CSCC(=O)NCc2cn(CC(=O)O)nn2)cc1 [Compound C29] | single digit | ~3 µM and 2.9 µM | – | – | – | – | – | – |
| Cc1cc(C(C)(C)C)ccc1OCC(O)CNCc1cc(C)c(C)s1 (centres unmarked) [Compound Z8739902234, CC=1C=C(CNCC(O)COC=2C=CC(=CC2C)C(C)(C)C)SC1C] | – | – | 1.33 µM and 1.3 µM | 13.1 | moderate selectivity | state dependent | 6.27 | 5.14 |
